{"source": "patent US9850277B2", "about": "“Therapeutically active compositions and their methods of use” (AGIOS PHARMACEUTICALS, INC, priority 2013, dated 2017)"}
{"biological_target": "IDH1 R132C (Homo sapiens (Human), UniProt O75874, R132C)", "sequence (O75874 whole entry R132C)": "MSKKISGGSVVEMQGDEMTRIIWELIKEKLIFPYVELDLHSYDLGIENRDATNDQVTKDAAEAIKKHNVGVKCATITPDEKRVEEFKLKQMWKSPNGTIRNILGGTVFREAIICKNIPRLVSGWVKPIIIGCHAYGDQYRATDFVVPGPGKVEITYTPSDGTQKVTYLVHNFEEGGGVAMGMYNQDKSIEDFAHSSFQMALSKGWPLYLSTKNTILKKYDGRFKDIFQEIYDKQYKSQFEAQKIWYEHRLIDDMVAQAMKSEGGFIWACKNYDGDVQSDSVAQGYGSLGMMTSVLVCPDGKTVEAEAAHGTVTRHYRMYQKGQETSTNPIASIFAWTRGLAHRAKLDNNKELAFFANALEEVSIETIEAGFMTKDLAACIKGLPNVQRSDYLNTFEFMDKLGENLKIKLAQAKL", "test": "In vitro NADPH depletion assay for IDH1m R132C inhibitors", "format": "biochemical", "details": "IDH1 R132C enzyme, read-out: IDH R132C IC50", "procedure": "(§1) A test compound is prepared as 10 mM stock in DMSO and diluted to 50× final concentration in DMSO, for a 50 μl reaction mixture. IDH enzyme activity converting alpha-ketoglutarate to 2-hydroxyglutaric acid is measured using a NADPH depletion assay. In the assay the remaining cofactor is measured at the end of the reaction with the addition of a catalytic excess of diaphorase and resazurin, to generate a fluorescent signal in proportion to the amount of NADPH remaining. […] The reaction is started with the addition of 10 μl of Substrate Mix ([…], 5 mM alpha-ketoglutarate, in Assay Buffer) and the mixture is incubated for 90 minutes at room temperature.\nThe concentration of NADPH and alpha-ketoglutarate in the Substrate Buffer is 20 μM and 1 mM, respectively.", "units": {"IC50": "nM"}}
{"molecule": "O=C(NC1CC(F)(F)C1)[C@H](c1ccccc1Cl)N(C(=O)[C@@H]1CCC(=O)N1c1cccc(F)n1)c1cccc(F)c1", "note": "[Compound 11]", "IC50": "100 to 500"}
{"molecule": "O=C(NC1CC(F)(F)C1)[C@H](c1ccccc1Cl)N(C(=O)[C@@H]1CCC(=O)N1c1nccc2ccccc12)c1cccc(F)c1", "note": "[Compound 16]", "IC50": "100 to 500"}
{"test_system": "U87MG cells", "test": "Cellular assay, inhibition of 2-HG production in U87MG cells", "format": "cell-based", "details": "48 hours", "procedure": "Cells (HT1080 or U87MG) are grown in T125 flasks in DMEM containing 10% FBS, 1× penicillin/streptomycin and 500 ug/mL G418 (present in U87MG cells only). They are harvested by trypsin and seeded into 96 well white bottom plates at a density of 5000 cell/well in 100 ul/well in DMEM with 10% FBS. […] Cells are incubated overnight at 37° C. in 5% CO2. The next day test compounds are made up at 2× the final concentration and 100 ul are added to each cell well. The final concentration of DMSO is 0.2% and the DMSO control wells are plated in row G. The plates are then placed in the incubator for 48 hours. […] The cell plate is placed back in the incubator for another 24 hours. At 72 hours post compound addition, 10 mL/plate of Promega Cell Titer Glo reagent is thawed and mixed. The cell plate is removed from the incubator and allowed to equilibrate to room temperature. Then 100 ul of Promega Cell Titer Glo reagent is added to each well of media. The cell plate is then placed on an orbital shaker for 10 minutes and then allowed to sit at room temperature for 20 minutes. The plate is then read for luminescence with an integration time of 500 ms.", "units": {"IC50": "nM"}}
{"molecule": "(S)—N—((S)-1-(2-Chlorophenyl)-2-((4,4-difluorocyclohexyl)amino)-2-oxoethyl)-1-(4-cyanopyridin-2-yl)-N-(1H-indazol-6-yl)-5-oxopyrrolidine-2-carboxamide [Compound 136]", "IC50": "< 100"}
{"molecule": "(S)—N—((S)-1-(2-Chlorophenyl)-2-(3,3-difluorocyclobutylamino)-2-oxoethyl)-N-(3-cyano-5-fluorophenyl)-3-(3-cyanophenyl)-2-oxooxazolidine-4-carboxamide [Compound 134]", "IC50": "< 100"}
{"molecule": "(S)-1-(4-Cyanopyridin-2-yl)-N—((S)-1-(2,4-dichlorophenyl)-2-((3,3-difluorocyclobutyl)-amino)-2-oxoethyl)-N-(3,5-difluorophenyl)-5-oxopyrrolidine-2-carboxamide [Compound 196]", "IC50": "< 100"}
{"molecule": "(S)-tert-butyl 3-(((S)-1-(2-chlorophenyl)-2-((3,3-difluorocyclobutyl) amino)-2-oxoethyl)(3,5-difluorophenyl)carbamoyl)-5-oxopiperazine-1-carboxylate [Compound 97]", "IC50": "< 100"}
{"molecule": "(S)—N—((S)-1-(2-Chlorophenyl)-2-((3,3-difluorocyclobutyl)amino)-2-oxoethyl)-1-(4-cyanopyridin-2-yl)-N-(1H-indazol-6-yl)-5-oxopyrrolidine-2-carboxamide [Compound 205]", "IC50": "< 100"}
{"molecule": "N#Cc1cccc(N2C(=O)OC[C@H]2C(=O)N(c2cccc3cn[nH]c23)[C@H](C(=O)NC2CCC(F)(F)CC2)c2ccccc2Cl)c1", "note": "[Compound 142, (S)—N—((S)-1-(2-Chlorophenyl)-2-(4,4-difluorocyclohexylamino)-2-oxoethyl)-3-(3-cyanophenyl)-N-(1H-indazol-7-yl)-2-oxooxazolidine-4-carboxamide]", "IC50": "< 100"}
{"molecule": "(S)—N—((S)-1-(2-Chlorophenyl)-2-(3,3-difluorocyclobutylamino)-2-oxoethyl)-1-(3-cyano-phenyl)-N-(1H-indazol-7-yl)-5-oxopyrrolidine-2-carboxamide [Compound 186]", "IC50": "< 100"}
{"biological_target": "IDH1 R132H (Homo sapiens (Human), UniProt O75874, R132H)", "sequence (O75874 whole entry R132H)": "as the sequence (O75874 whole entry R132C) above, with C132H counted along it", "test": "In vitro NADPH depletion assay for IDH1m R132H inhibitors", "format": "biochemical", "details": "IDH1 R132H enzyme, read-out: IDH R132H IC50", "procedure": "as §1", "units": {"IC50": "nM"}}
{"molecule": "COc1cccnc1N1C(=O)CC[C@H]1C(=O)N(c1cccc(F)c1)[C@H](C(=O)NC1CC(F)(F)C1)c1ccccc1Cl", "note": "[Compound 17]", "IC50": "100 to 500"}
{"molecule": "O=C(NC1CC(F)(F)C1)[C@H](c1ccccc1Cl)N(C(=O)[C@@H]1CCC(=O)N1c1cccc(F)n1)c1cccc(F)c1", "note": "[Compound 11]", "IC50": "100 to 500"}
{"molecule": "O=C(NC1CC(F)(F)C1)[C@H](c1ccccc1Cl)N(C(=O)[C@@H]1CCC(=O)N1c1nccc2ccccc12)c1cccc(F)c1", "note": "[Compound 16]", "IC50": "100 to 500"}
{"molecule": "O=C(NC1CC(F)(F)C1)C(c1ccccc1Cl)N(C(=O)[C@@H]1CCC(=O)N1c1cccnc1)c1cccc(F)c1", "note": "(stereo partly shown) [Compound 10]", "IC50": "100 to 500"}
